{"source": "patent US12144792B2", "about": "“Therapeutic agents for neurodegenerative diseases” (priority 2016, dated 2024)", "key": {"[1]": {"system": "patients with downbeat nystagmus", "test": "Case studies, clinical examination (visual acuity, posturography)", "format": "in vivo, human", "text": "The patient was diagnosed with downbeat nystagmus: the patient was severely impaired by blurred vision (oscillopsia) due to the nystagmus, and experienced difficulties while reading and writing. The patient's visual acuity was: right 0.75, left 0.67, binocular 0.83, and the downbeat nystagmus was documented by video-oculography. […] […] […] The patient was able to suppress the nystagmus by visual fixation. In addition, the patient's spatial orientation was improved."}, "[2]": {"system": "patients with vertigo", "details": "used in France to treat acute vertigo since 1957; long-term safety not determined; cited from earlier work"}, "[3]": {"system": "Niemann-Pick A (NPA) patient fibroblasts", "test": "Lysosomal volume via LysoTracker", "format": "cell-based, human", "details": "1 mM, 6 days, vs untreated"}, "[4]": {"system": "patient with Spinocerebellar Ataxia (SCA) 1", "test": "Case study, clinical examination", "format": "in vivo, human", "details": "Ex. 16, SCA 1", "text": "Three months later the medication was stopped."}, "[5]": {"system": "patient with corticobasal syndrome", "test": "Case study, clinical examination", "format": "in vivo, human", "method": "Gait analysis was performed before treatment commenced. After 20 days of acetyl-leucine treatment, the patient was re-examined. […] After 8 weeks of acetyl-leucine treatment, medication was stopped and the patient was re-examined 6 days later."}, "[6]": {"system": "patients with cerebellar ataxia", "details": "cited from earlier work"}, "[7]": {"system": "patients with ataxia telangiectasia", "test": "Case studies, SARA, SCAFI, visual analog scale and reports", "format": "in vivo, human", "text": "For example, to evaluate overall neurological status, mDRS, a four-domain scale (ambulation, manipulation, language and swallowing), may be applied. Cerebellar function may be evaluated using SARA, an eight-item clinical rating scale (gait, stance, sitting, speech, fine motor function and taxis; range 0-40, where 0 is the best neurological status and 40 the worst), and SCAFI, comprising the 8-m-Walking-Time (8MW; performed by having patients walking twice as quickly as possible from one line to another excluding turning), 9-Hole-Peg-Test (9HPT) and the number of “PATA” repetitions over 10 s. Subjective impairment and quality of life may be evaluated using the EQ-5D-5L questionnaire and VAS. To assess ocular motor function, 3-dimensional videooculography (EyeSeeCam) may be used to measure the peak velocity of saccades, gain of smooth pursuit, peak slow phase velocity of gaze-evoked nystagmus (gaze-holding function), peak slow phase velocity of optokinetic nystagmus, and gain of horizontal vestibulo-ocular reflex. To evaluate the cognitive state, WAIS-R or WISC-W, and MoCA, assessing different cognitive domains, including attention and concentration, executive functions, memory, language, visuoconstructional skills, conceptual thinking, calculations, and orientation with a maximum of 30 points and a cut-off score of 26, may be used. The skilled person will know how to perform these and other such tests.\nAfter one month of treatment, the patient was re-evaluated. […] Examination indicated a Scale for Assessment and Rating of Ataxia (SARA) score of 15.5/40. Results from the patient's Spinocerebellar Ataxia Functional Index (SCAFI) analysis were: • Mean 8-meters Walking Test (8MW): 18.5 s • MW 9-Hole Pegboard Test Dominant (9HPTD) (right): 77.9 s • MW 9-Hole Pegboard Test Non-Dominant (9HPTND): 101.3 s • MW PATA Word Test: 13 • Visual analog scale (as evaluated by the patient): 85\nAfter one month of treatment, the patient was re-evaluated. […] Examination indicated a Scale for Assessment and Rating of Ataxia (SARA) score of 23.5/40.\nAfter slightly over 7 months of treatment, the patient was re-evaluated. […] Examination indicated a Scale for Assessment and Rating of Ataxia (SARA) score of 21.5/40.\nAfter slightly over 1 month of treatment, the patient was re-evaluated. […] The patient also reported that drinking was easier and no longer needed a straw. […] Examination indicated a Scale for Assessment and Rating of Ataxia (SARA) score of 18.5/40.\nAfter about 1 month of treatment, the patient was re-evaluated. […] On medication, they were able to walk with only holding the caregiver's hand.\nThe patient was evaluated after one month and six months of treatment, respectively. […] The patient, however, was suffering from anxiety, which would be expected to negatively influence the response."}, "[8]": {"system": "patient with GM1 Gangliosidosis", "test": "Case study, patient evaluation (SARA, mRDS, EQ-5D-5L)", "format": "in vivo, human", "details": "Ex. 6, GM1 Gangliosidosis; 1.5 then 3 g per day; after one month", "text": "Before treatment was commenced, examination of the patient indicated a Scale for Assessment and Rating of Ataxia (SARA) score of 35/40, a mRDS score of 15, and a EQ-5D-5L visual scale of 50. The patient was started on therapy with acetyl-leucine at a dose of 1.5 g per day for the first week, followed by a dose of 3 g per day for the second week onwards."}, "[9]": {"system": "Hexb^−/− mouse (Sandhoff disease model)", "test": "Lifespan of Sandhoff mouse", "format": "in vivo", "details": "0.1 g/kg from 3 weeks of age, p<0.05 vs untreated", "method": "This study made use of a mouse model of Sandhoff disease, the Hexb^−/− mouse, as described in Jeyakumar et al. (Jeyakumar, M. et al. (1999) Proc. Natl. Acad. Sci. USA 96: 6388-6393).\nIn FIG. 7A, acetyl-leucine-treated mice were treated with 0.1 g/kg acetyl-leucine from 3 weeks of age. The asterisks (*) indicates a p-value of <0.05 vs untreated Sandhoff mice. Data is average of n=6 mice per group. Without treatment, the median survival time of Sandhoff mice was 112 days. Treatment with acetyl-leucine (0.1 g/kg body weight since 3 weeks of age) increased the median lifespan to 120 days."}, "[10]": {"details": "Ex. 12 Patient 1, approximately 14 weeks after starting"}, "[11]": {"details": "Ex. 15 Patient 2, after one month"}, "[12]": {"details": "Ex. 15 Patient 3, after slightly over 7 months"}, "[13]": {"details": "Ex. 15 Patient 4, after slightly over 1 month"}, "[14]": {"details": "Ex. 15 Patient 5, after almost 7 months"}}, "data": [{"smiles": "CC(=O)NC(CC(C)C)C(=O)O", "note": "(racemic) [acetyl-DL-leucine]", "values": [{"measurement": "patient-reported benefit", "setting": "[1]; Ex. 12 Patient 1, downbeat nystagmus, 3 then 5 gram per day, after 10 days", "value": "significant benefit"}, {"measurement": "nystagmus, clinical examination by two independent examiners", "setting": "[1]; [10]", "value": "reduction of the nystagmus"}, {"measurement": "posturography", "setting": "[1]; [10]", "value": "reduction of postural sway"}, {"measurement": "side-effects", "setting": "[1]; Ex. 12 Patient 1, continued treatment at 5 gram per day", "value": "no side-effects resulted"}, {"measurement": "symptoms", "setting": "[1]; Ex. 12 Patient 2, downbeat nystagmus, 3 g/day first week, 5 g/day thereafter", "value": "improvement of gait"}, {"measurement": "safety profile", "setting": "[2]", "value": "excellent safety profile"}, {"measurement": "LysoTracker fluorescence (lysosomal volume)", "setting": "[3]", "value": "statistically significant reduction in LysoTracker fluorescence"}, {"measurement": "symptoms", "setting": "[4]; 5 g/day, three weeks on medication", "value": "all symptoms significantly improved"}, {"measurement": "side-effects", "setting": "[4]; over two years on the same dosage", "value": "without any side-effects"}, {"measurement": "signs and symptoms after stopping", "setting": "[4]; two weeks after the medication was stopped", "value": "the intensity of the signs and symptoms were the same as before therapy"}, {"measurement": "dizziness and falls", "setting": "[5]; Ex. 10, corticobasal syndrome, 3 then 5 g per day, after 20 days", "value": "improvement of dizziness symptoms and significant reduction in the frequency of falls"}, {"measurement": "symptoms after suspension", "setting": "[5]; Ex. 10, medication stopped after 8 weeks", "value": "increase of dizziness symptoms two days after suspension of treatment"}, {"measurement": "benefit in cerebellar ataxia", "setting": "[6]; another case series (Pelz et al. 2015)", "value": "did not find benefit"}, {"measurement": "cerebellar ataxia symptoms", "setting": "[6]; case series with cerebellar patients (Strupp et al. 2013)", "value": "symptomatic improvement of cerebellar ataxia"}, {"measurement": "temporal gait variability", "setting": "[6]; quantitative gait analysis (Schniepp et al. 2015)", "value": "improved temporal gait variability"}, {"measurement": "caregivers' report", "setting": "[7]; Ex. 15 Patient 1, after one month", "value": "improvement of speech and gait"}, {"measurement": "MW PATA Word Test", "setting": "[7]; Ex. 15 Patient 1, after one month, before 12.5", "value": 13}, {"measurement": "Mean 8-meters Walking Test (8MW)", "setting": "[7]; [11]", "value": "not able to perform without support"}, {"measurement": "caregivers' report", "setting": "[7]; [11]", "value": "improvement of fine motor function, hand tremor, and speech"}, {"measurement": "MW PATA Word Test", "setting": "[7]; Ex. 15 Patient 2, after one month, before 13.5", "value": 14}, {"measurement": "MW 9-Hole Pegboard Test Non-Dominant (9HPTND)", "setting": "[7]; Ex. 15 Patient 2, after one month, before 299.2 s", "value": 300, "unit": "s"}, {"measurement": "MW 9-Hole Pegboard Test Dominant (9HPTD) (right)", "setting": "[7]; Ex. 15 Patient 2, after one month, before 300 s", "value": 300, "unit": "s"}, {"measurement": "Mean 8-meters Walking Test (8MW)", "setting": "[7]; [12]", "value": "not able to perform"}, {"measurement": "caregivers' and patient's report", "setting": "[7]; [12]", "value": "general improvement of well-being"}, {"measurement": "MW PATA Word Test", "setting": "[7]; Ex. 15 Patient 3, after slightly over 7 months, before 14", "value": 10}, {"measurement": "Mean 8-meters Walking Test (8MW)", "setting": "[7]; [13]", "value": "not able to perform"}, {"measurement": "patient's and parent's report", "setting": "[7]; [13]", "value": "improvement in handwriting"}, {"measurement": "mother's report", "setting": "[7]; Ex. 15 Patient 5, ataxia telangiectasia, 5 g/day, after about 1 month", "value": "significant improvement of stability of the gait"}, {"measurement": "Mean 8-meters Walking Test (8MW)", "setting": "[7]; Ex. 15 Patient 5, after about 1 month", "value": "not able to walk without support"}, {"measurement": "MW PATA Word Test", "setting": "[7]; Ex. 15 Patient 5, after about 1 month, before 6", "value": 7.5}, {"measurement": "MW PATA Word Test", "setting": "[7]; [14]", "value": 11}, {"measurement": "mother's report", "setting": "[7]; [14]", "value": "significantly more stable gait"}, {"measurement": "clinical re-evaluation", "setting": "[7]; Ex. 15 Patient 5, after slightly over a year", "value": "improved social interaction, activity, and agility"}, {"measurement": "symptoms", "setting": "[7]; Ex. 15 Patient 6, ataxia telangiectasia, 1.5 then 3 g/day, after one month", "value": "increased fine motor skills with reduced hand tremor"}, {"measurement": "symptoms", "setting": "[7]; Ex. 15 Patient 6, after six months", "value": "stable general conditions, stable gait and stance, and improved handwriting"}, {"measurement": "symptoms on re-examination", "setting": "[8]", "value": "stable general condition, increased gait (more fluent), and stable stance in natural position"}, {"measurement": "lifespan", "setting": "[9]", "value": "statistically significant increase in the lifespan"}]}]}
